From PubChem BioAssay (NCI)
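Step 1: Grow cells in 96-well plates. Step 2: Expose to compound for 48 hours at 5 concentrations. Step 3: Interpolate endpoints linearly; if unreached, use highest concentration. GI50 is the concentration that inhibits growth by half. TGI is the concentration that stops growth completely.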

Assays:
Assay in all cases: growth of human tumour cells (NCI), 48 h
786-0 renal = tested on: 786-0 renal
A498 renal = tested on: A498 renal
A549 NSCLC = tested on: A549 NSCLC
ACHN renal = tested on: ACHN renal
BT-549 breast = tested on: BT-549 breast
CAKI-1 renal = tested on: CAKI-1 renal
CCRF-CEM leukemia = tested on: CCRF-CEM leukemia
COLO 205 colon = tested on: COLO 205 colon
DU-145 prostate = tested on: DU-145 prostate
EKVX NSCLC = tested on: EKVX NSCLC
HCC-2998 colon = tested on: HCC-2998 colon
HCT-116 colon = tested on: HCT-116 colon
HCT-15 colon = tested on: HCT-15 colon
HL-60(TB) leukemia = tested on: HL-60(TB) leukemia
HOP-62 NSCLC = tested on: HOP-62 NSCLC
HOP-92 NSCLC = tested on: HOP-92 NSCLC
HS 578T breast = tested on: HS 578T breast
HT29 colon = tested on: HT29 colon
IGROV1 ovarian = tested on: IGROV1 ovarian
K-562 leukemia = tested on: K-562 leukemia
KM12 colon = tested on: KM12 colon
LOX IMVI melanoma = tested on: LOX IMVI melanoma
M14 melanoma = tested on: M14 melanoma
MALME-3M melanoma = tested on: MALME-3M melanoma
MCF7 breast = tested on: MCF7 breast
MDA-MB-231 breast = tested on: MDA-MB-231 breast
MOLT-4 leukemia = tested on: MOLT-4 leukemia
NCI-H226 lung = tested on: NCI-H226 lung
NCI-H460 lung = tested on: NCI-H460 lung
NCI-H522 lung = tested on: NCI-H522 lung
NCI/ADR-RES ovarian = tested on: NCI/ADR-RES ovarian
OVCAR-3 ovarian = tested on: OVCAR-3 ovarian
OVCAR-4 ovarian = tested on: OVCAR-4 ovarian
OVCAR-5 ovarian = tested on: OVCAR-5 ovarian
OVCAR-8 ovarian = tested on: OVCAR-8 ovarian
PC-3 prostate = tested on: PC-3 prostate
RPMI-8226 leukemia = tested on: RPMI-8226 leukemia
RXF 393 renal = tested on: RXF 393 renal
SF-268 CNS = tested on: SF-268 CNS
SF-295 CNS = tested on: SF-295 CNS
SF-539 CNS = tested on: SF-539 CNS
SK-MEL-2 melanoma = tested on: SK-MEL-2 melanoma
SK-MEL-28 melanoma = tested on: SK-MEL-28 melanoma
SK-MEL-5 melanoma = tested on: SK-MEL-5 melanoma
SK-OV-3 ovarian = tested on: SK-OV-3 ovarian
SN12C renal = tested on: SN12C renal
SNB-19 CNS = tested on: SNB-19 CNS
SNB-75 CNS = tested on: SNB-75 CNS
SR leukemia = tested on: SR leukemia
SW-620 colon = tested on: SW-620 colon
T-47D breast = tested on: T-47D breast
TK-10 renal = tested on: TK-10 renal
U251 CNS = tested on: U251 CNS
UACC-257 melanoma = tested on: UACC-257 melanoma
UACC-62 melanoma = tested on: UACC-62 melanoma
UO-31 renal = tested on: UO-31 renal

`CCOC(=O)Nc1cccc(-n2cnc3cc(-c4ccc(O)cc4)ccc32)c1` was tested, and the GI50 (786-0 renal) was 0.719 µM, the TGI (786-0 renal) was greater than 54.8 µM and the GI50 (A498 renal) was 0.697 µM. It also gave a TGI (A498 renal) of 4.53 µM, a GI50 (A549 NSCLC) of 0.38 µM and a TGI (A549 NSCLC) greater than 45.6 µM. For the same compound, the GI50 (ACHN renal) was 0.26 µM, the TGI (ACHN renal) was greater than 67.4 µM and the GI50 (BT-549 breast) was 0.132 µM. For the same compound, the TGI (BT-549 breast) was 4.4 µM, the GI50 (CAKI-1 renal) was 0.343 µM and the TGI (CAKI-1 renal) was greater than 76.8 µM. For the same compound, the GI50 (CCRF-CEM leukemia) was 0.144 µM, the TGI (CCRF-CEM leukemia) was greater than 100 µM and the GI50 (COLO 205 colon) was 0.232 µM. For the same compound, the TGI (COLO 205 colon) was greater than 34.6 µM, the GI50 (DU-145 prostate) was 0.391 µM and the TGI (DU-145 prostate) was greater than 45.3 µM. For the same compound, the GI50 (EKVX NSCLC) was 0.885 µM, the TGI (EKVX NSCLC) was greater than 47.8 µM and the GI50 (HCC-2998 colon) was 0.31 µM. It also gave a TGI (HCC-2998 colon) greater than 66.7 µM, a GI50 (HCT-116 colon) of 0.141 µM and a TGI (HCT-116 colon) greater than 46.2 µM. For the same compound, the GI50 (HCT-15 colon) was 0.0447 µM, the TGI (HCT-15 colon) was greater than 37.8 µM and the GI50 (HL-60(TB) leukemia) was 0.036 µM. It also gave a TGI (HL-60(TB) leukemia) of 1.21 µM, a GI50 (HOP-62 NSCLC) of 0.77 µM and a TGI (HOP-62 NSCLC) greater than 59.8 µM. It also gave a GI50 (HOP-92 NSCLC) of 1.45 µM, a TGI (HOP-92 NSCLC) of 13.6 µM and a GI50 (HS 578T breast) of 0.317 µM. For the same compound, the TGI (HS 578T breast) was greater than 30.7 µM, the GI50 (HT29 colon) was 0.143 µM and the TGI (HT29 colon) was 1.1 µM. The GI50 (IGROV1 ovarian) was 0.561 µM, the TGI (IGROV1 ovarian) was greater than 46.5 µM and the GI50 (K-562 leukemia) was 0.0426 µM. The TGI (K-562 leukemia) was greater than 100 µM, the GI50 (KM12 colon) was 0.283 µM and the TGI (KM12 colon) was 6.02 µM. It also gave a GI50 (LOX IMVI melanoma) of 0.245 µM, a TGI (LOX IMVI melanoma) greater than 39.9 µM and a GI50 (M14 melanoma) of 0.0634 µM. The TGI (M14 melanoma) was greater than 37.8 µM, the GI50 (MALME-3M melanoma) was 0.774 µM and the TGI (MALME-3M melanoma) was greater than 48.8 µM. For the same compound, the GI50 (MCF7 breast) was 0.141 µM, the TGI (MCF7 breast) was greater than 35.7 µM and the GI50 (MDA-MB-231 breast) was 0.267 µM. It also gave a TGI (MDA-MB-231 breast) greater than 67.4 µM, a GI50 (MOLT-4 leukemia) of 0.114 µM and a TGI (MOLT-4 leukemia) of 37.2 µM. For the same compound, the GI50 (NCI-H226 lung) was 1.26 µM, the TGI (NCI-H226 lung) was 6.77 µM and the GI50 (NCI-H460 lung) was 0.192 µM. The TGI (NCI-H460 lung) was greater than 34.2 µM, the GI50 (NCI-H522 lung) was 0.0561 µM and the TGI (NCI-H522 lung) was 0.333 µM. For the same compound, the GI50 (NCI/ADR-RES ovarian) was 0.0849 µM, the TGI (NCI/ADR-RES ovarian) was 25.4 µM and the GI50 (OVCAR-3 ovarian) was 0.0562 µM. The TGI (OVCAR-3 ovarian) was 2.17 µM, the GI50 (OVCAR-4 ovarian) was 1.58 µM and the TGI (OVCAR-4 ovarian) was greater than 55.8 µM. For the same compound, the GI50 (OVCAR-5 ovarian) was 0.6 µM, the TGI (OVCAR-5 ovarian) was greater than 75.1 µM and the GI50 (OVCAR-8 ovarian) was 0.302 µM. For the same compound, the TGI (OVCAR-8 ovarian) was greater than 33.7 µM, the GI50 (PC-3 prostate) was 0.145 µM and the TGI (PC-3 prostate) was greater than 100 µM. It also gave a GI50 (RPMI-8226 leukemia) of 0.342 µM, a TGI (RPMI-8226 leukemia) of 3.78 µM and a GI50 (RXF 393 renal) of 0.157 µM. For the same compound, the TGI (RXF 393 renal) was 0.681 µM, the GI50 (SF-268 CNS) was 2.19 µM and the TGI (SF-268 CNS) was greater than 71.6 µM. For the same compound, the GI50 (SF-295 CNS) was 0.102 µM, the TGI (SF-295 CNS) was greater than 100 µM and the GI50 (SF-539 CNS) was 0.182 µM. It also gave a TGI (SF-539 CNS) of 15 µM, a GI50 (SK-MEL-2 melanoma) of 0.204 µM and a TGI (SK-MEL-2 melanoma) greater than 43.8 µM. The GI50 (SK-MEL-28 melanoma) was 1.62 µM, the TGI (SK-MEL-28 melanoma) was greater than 45.9 µM and the GI50 (SK-MEL-5 melanoma) was 0.167 µM. The TGI (SK-MEL-5 melanoma) was 2.37 µM, the GI50 (SK-OV-3 ovarian) was 0.618 µM and the TGI (SK-OV-3 ovarian) was greater than 72 µM. It also gave a GI50 (SN12C renal) of 0.498 µM, a TGI (SN12C renal) greater than 55 µM and a GI50 (SNB-19 CNS) of 0.313 µM. It also gave a TGI (SNB-19 CNS) greater than 100 µM, a GI50 (SNB-75 CNS) of 0.0486 µM and a TGI (SNB-75 CNS) greater than 41.1 µM. The GI50 (SR leukemia) was 0.032 µM, the TGI (SR leukemia) was greater than 45.2 µM and the GI50 (SW-620 colon) was 0.0647 µM. It also gave a TGI (SW-620 colon) greater than 47.4 µM, a GI50 (T-47D breast) of 0.94 µM and a TGI (T-47D breast) greater than 29.3 µM. For the same compound, the GI50 (TK-10 renal) was 1.47 µM, the TGI (TK-10 renal) was greater than 64.8 µM and the GI50 (U251 CNS) was 0.158 µM. For the same compound, the TGI (U251 CNS) was greater than 47.1 µM, the GI50 (UACC-257 melanoma) was 1.27 µM and the TGI (UACC-257 melanoma) was greater than 42.5 µM. The GI50 (UACC-62 melanoma) was 0.367 µM, the TGI (UACC-62 melanoma) was greater than 36.9 µM and the GI50 (UO-31 renal) was 0.388 µM. It also gave a TGI (UO-31 renal) greater than 36.9 µM.

Compound `COc1ccc(-c2nc(C(Cl)Cl)nc3cc(-c4ccccc4)nn23)cc1` has a GI50 (786-0 renal) of 10.7 µM, a TGI (786-0 renal) of 26.9 µM and a GI50 (BT-549 breast) of 1.92 µM. For the same compound, the TGI (BT-549 breast) was 5.78 µM, the GI50 (HL-60(TB) leukemia) was 1.6 µM and the TGI (HL-60(TB) leukemia) was greater than 100 µM. For the same compound, the GI50 (HOP-62 NSCLC) was 2.66 µM, the TGI (HOP-62 NSCLC) was greater than 100 µM and the GI50 (HOP-92 NSCLC) was 3.09 µM. The TGI (HOP-92 NSCLC) was greater than 100 µM, the GI50 (K-562 leukemia) was 3.06 µM and the TGI (K-562 leukemia) was greater than 100 µM. The GI50 (MOLT-4 leukemia) was 2.75 µM, the TGI (MOLT-4 leukemia) was greater than 100 µM and the GI50 (RXF 393 renal) was 1.63 µM. It also gave a TGI (RXF 393 renal) of 3.14 µM, a GI50 (SF-539 CNS) of 72.8 µM and a TGI (SF-539 CNS) greater than 100 µM. The GI50 (SK-MEL-2 melanoma) was greater than 100 µM, the TGI (SK-MEL-2 melanoma) was greater than 100 µM and the GI50 (SK-MEL-5 melanoma) was greater than 100 µM. It also gave a TGI (SK-MEL-5 melanoma) greater than 100 µM, a GI50 (SNB-19 CNS) of 2.81 µM and a TGI (SNB-19 CNS) greater than 100 µM. For the same compound, the GI50 (SNB-75 CNS) was greater than 100 µM, the TGI (SNB-75 CNS) was greater than 100 µM and the GI50 (SR leukemia) was 1.87 µM. The TGI (SR leukemia) was greater than 100 µM, the GI50 (SW-620 colon) was 1.96 µM and the TGI (SW-620 colon) was greater than 100 µM. The GI50 (UACC-62 melanoma) was greater than 100 µM, the TGI (UACC-62 melanoma) was greater than 100 µM and the GI50 (UO-31 renal) was greater than 100 µM. The TGI (UO-31 renal) was greater than 100 µM.
